≈ marks a conversion by molar mass, not a printed value. Where “and” joins values, the source holds several entries; their conditions need not be identical. Equal entries are not always repeated. Calls of active or inactive are those of the source. The rule behind the calls is not given here.
Legend:
[1] = system: Mycobacterium tuberculosis; assay: Antimycobacterial activity against wild type Mycobacterium tuberculosis H37Rv assessed as bacterial growth inhibition measured after 21 days by microbroth dilution method; assay type: functional; conditions: for MIC: 504 h, time 21 day
MRC5 = assay: (§1) Cytotoxicity against human MRC5 cells assessed as reduction in cell number measured after 72 hrs by Hoechst 33342 staining based microscopic analysis; assay type: toxicity; conditions: mrc5, 72 h
[2] = system: Mycolicibacterium smegmatis; assay: Antimycobacterial activity against Mycobacterium smegmatis MC2 155 assessed as reduction in phosphatidylethanolamine synthesis at 16.8 uM incubated for 16 hrs by TLC analysis; assay type: functional, organism-based
[3] = system: Mycolicibacterium smegmatis; assay: Antimycobacterial activity against Mycobacterium smegmatis MC2 155 assessed as reduction in trehalose dimycolates level at 16.8 uM incubated for 16 hrs by TLC analysis; assay type: functional, organism-based
[4] = system: Mycobacterium tuberculosis; assay: Antimycobacterial activity against 14C acetate-labeled Mycobacterium tuberculosis H37Ra assessed as reduction in trehalose dimycolates level at 42 to 84 uM incubated for 24 hrs by autoradiography based TLC analysis; assay type: functional, organism-based; conditions: dose 42-84 µM
[5] = system: Mycobacterium tuberculosis; assay: Antimycobacterial activity against 14C acetate-labeled Mycobacterium tuberculosis H37Ra assessed as inhibition of bacterial growth at 42 uM incubated for 24 hrs by autoradiography based TLC analysis relative to control; assay type: functional
Escherichia coli [6] = assay: Antibacterial activity against Escherichia coli BL21(DE3) assessed as inhibition of bacterial growth incubated for 4 hrs; assay type: functional, organism-based; conditions: dose 35-140 µM
Escherichia coli [7] = assay: Antibacterial activity against Escherichia coli BL21(DE3) assessed as reduction in phosphatidylethanolamine incubated for 4 hrs by TLC analysis; assay type: functional, organism-based
[8] = as §1; assay type: toxicity; conditions: MRC5 cells, read-out: LD50
[9] = system: Mycobacterium tuberculosis; assay: Antimycobacterial activity against 14C acetate-labeled Mycobacterium tuberculosis H37Ra assessed as reduction in trehalose monomycolates level at 42 to 84 uM incubated for 24 hrs by autoradiography based TLC analysis; assay type: functional, organism-based; conditions: dose 42-84 µM
[10] = system: Mycolicibacterium smegmatis; assay: Disruption of trans-membrane electrical charge gradient of proton motive force in Mycobacterium smegmatis up to 280 uM by DiSC3(5)-probe based fluorescence assay; assay type: functional, organism-based
[11] = system: Mycobacterium tuberculosis; assay: Antimycobacterial activity against 14C acetate-labeled Mycobacterium tuberculosis H37Ra assessed as reduction in cell wall bound mycolic acid level at 42 to 84 uM incubated for 24 hrs by autoradiography based TLC analysis; assay type: functional, organism-based; conditions: dose 42-84 µM
[12] = system: Mycobacterium tuberculosis; assay: Antimycobacterial activity against 14C acetate-labeled Mycobacterium tuberculosis H37Ra assessed as inhibition of bacterial growth at 84 uM incubated for 24 hrs by autoradiography based TLC analysis relative to control; assay type: functional; conditions: AT84
[13] = system: Mycolicibacterium smegmatis; assay: Antimycobacterial activity against Mycobacterium smegmatis MC2 155 assessed as reduction in cell wall bound mycolic acid methyl esters at 16.8 uM incubated for 16 hrs by TLC analysis; assay type: functional, organism-based
[14] = system: Mycolicibacterium smegmatis; assay: Antimycobacterial activity against Mycobacterium smegmatis MC2 155 assessed as reduction in trehalose monomycolates level at 16.8 uM incubated for 16 hrs by TLC analysis; assay type: functional, organism-based
[15] = system: Mycolicibacterium smegmatis; assay: Antimycobacterial activity against Mycobacterium smegmatis MC2 155 assessed as inhibition of bacterial growth at 16.8 uM incubated for 16 hrs relative to control; assay type: functional
[16] = target: T1, Enoyl-[acyl-carrier-protein] reductase [NADH] (Mycobacterium tuberculosis) (UniProt P9WGR1); assay: Inhibition of Mycobacterium tuberculosis InhA at 5 uM using trans-2-dodecenoyl-Coenzyme A as substrate in presence of NADH relative to control
T1 sequence (whole entry): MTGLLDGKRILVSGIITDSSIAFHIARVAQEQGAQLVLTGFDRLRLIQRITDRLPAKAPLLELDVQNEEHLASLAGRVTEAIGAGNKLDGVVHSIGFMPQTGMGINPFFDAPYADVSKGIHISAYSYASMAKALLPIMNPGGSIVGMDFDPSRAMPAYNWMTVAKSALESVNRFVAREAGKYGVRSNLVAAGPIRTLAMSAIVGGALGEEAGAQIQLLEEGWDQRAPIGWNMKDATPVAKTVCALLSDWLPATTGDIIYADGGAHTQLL

[17] = system: Mycolicibacterium smegmatis; assay: Disruption of trans-membrane electrical charge gradient of proton motive force in Mycobacterium smegmatis by DiSC3(5)-probe based fluorescence assay; assay type: functional, organism-based
[18] = system: Mycolicibacterium smegmatis; assay: Antimycobacterial activity against Mycobacterium smegmatis MC2 155 assessed as reduction in cell wall bound mycolic acid methyl esters at 6.2 uM incubated for 16 hrs by TLC analysis; assay type: functional, organism-based
[19] = system: Mycolicibacterium smegmatis; assay: Antimycobacterial activity against Mycobacterium smegmatis MC2 155 assessed as reduction in phosphatidylethanolamine synthesis at 6.2 uM incubated for 16 hrs by TLC analysis; assay type: functional, organism-based
[20] = system: Mycolicibacterium smegmatis; assay: Antimycobacterial activity against Mycobacterium smegmatis MC2 155 assessed as reduction in trehalose monomycolates level at 6.2 uM incubated for 16 hrs by TLC analysis; assay type: functional, organism-based
[21] = system: Mycolicibacterium smegmatis; assay: Antimycobacterial activity against Mycobacterium smegmatis MC2 155 assessed as reduction in trehalose dimycolates level at 6.2 uM incubated for 16 hrs by TLC analysis; assay type: functional, organism-based
[22] = system: Mycolicibacterium smegmatis; assay: Antimycobacterial activity against Mycobacterium smegmatis MC2 155 assessed as inhibition of bacterial growth at 6.2 uM incubated for 16 hrs relative to control; assay type: functional
[23] = target: T1, Enoyl-[acyl-carrier-protein] reductase [NADH] (Mycobacterium tuberculosis); assay: Inhibition of Mycobacterium tuberculosis InhA at 50 uM using trans-2-dodecenoyl-coenzyme A as substrate in presence of NADH
[24] = system: Mycolicibacterium smegmatis; assay: Antimycobacterial activity against Mycobacterium smegmatis MC2 155 assessed as inhibition of bacterial growth at 10 uM incubated for 16 hrs relative to control; assay type: functional
[25] = system: Mycolicibacterium smegmatis; assay: Disruption of trans-membrane electrical charge gradient of proton motive force in Mycobacterium smegmatis at 30 uM by DiSC3(5)-probe based fluorescence assay; assay type: functional, organism-based
[26] = system: Mycolicibacterium smegmatis; assay: Antimycobacterial activity against Mycobacterium smegmatis MC2 155 assessed as inhibition of bacterial growth at 2 uM incubated for 16 hrs relative to control; assay type: functional
[27] = system: Mycolicibacterium smegmatis; assay: Antimycobacterial activity against Mycobacterium smegmatis MC2 155 assessed as inhibition of bacterial growth at 5 uM incubated for 16 hrs relative to control; assay type: functional
[28] = system: Mycobacterium tuberculosis; assay: Antimycobacterial activity against 14C acetate-labeled Mycobacterium tuberculosis H37Ra assessed as reduction in trehalose dimycolates level at 3.7 uM incubated for 24 hrs by autoradiography based TLC analysis; assay type: functional, organism-based
[29] = system: Mycobacterium tuberculosis; assay: Antimycobacterial activity against 14C acetate-labeled Mycobacterium tuberculosis H37Ra assessed as reduction in trehalose monomycolates level at 3.7 uM incubated for 24 hrs by autoradiography based TLC analysis; assay type: functional, organism-based

Q: For `Clc1cc(Cl)cc(N2CCC(C3c4ccccc4-c4ccccc43)C2)c1` (stereo unspecified), which MIC [1] is on record?
A: 66 µM and 25 µg/mL

Q: What about the Activity (MRC5) of the same compound?
A: Non-Toxic

Q: Which Activity [2] does the source give for `Clc1ccc(CN2CCC(C3c4ccccc4-c4ccccc43)C2)cc1` (stereo unspecified) here?
A: Active

Q: What about the Activity [3] of the same compound?
A: Active

Q: And the Activity [4]?
A: Active

Q: What about the MIC [1] of the same compound?
A: 1.4 µM and 0.5 µg/mL

Q: What about the inhibition at 42 µM [5] of the same compound?
A: 43%

Q: What about the inhibition (Escherichia coli [6]) of the same compound?
A: Dose-Dependent Effect

Q: What about the Activity (Escherichia coli [7]) of the same compound?
A: Active

Q: What about the CC50 at 72 h [8] of the same compound?
A: 35 µM

Q: What about the Activity [9] of the same compound?
A: inactive

Q: What about the Activity [10] of the same compound?
A: inactive

Q: And the Activity [11]?
A: Active

Q: And the inhibition at 84 µM [12]?
A: 48%

Q: And the Activity [13]?
A: Active

Q: What about the Activity [14] of the same compound?
A: inactive

Q: And the inhibition at 16.8 µM [15]?
A: 57%

Q: Which MIC [1] does the source give for `c1ccc(CCN2CCC(C3c4ccccc4-c4ccccc43)C2)cc1` (stereo unspecified) here?
A: 14.7 µM and 5 µg/mL

Q: And the CC50 at 72 h [8]?
A: 18.9 µM

Q: For `O=C1C(C2c3ccccc3-c3ccccc32)CCN1Cc1ccc(Cl)cc1` (stereo unspecified), which MIC [1] is on record?
A: 69 µM and 25 µg/mL

Q: And the Activity (MRC5)?
A: Non-Toxic

Q: With `O=C(c1ccccc1)N1CCC(C2c3ccccc3-c3ccccc32)C1` (stereo unspecified) as the compound, how does the MIC [1] read?
A: > 16 µg/mL

Q: And the inhibition [16]?
A: 50%

Q: Which MIC [1] does the source give for `Fc1ccc(N2CCC(C3c4ccccc4-c4ccccc43)C2)cc1` (stereo unspecified) here?
A: 15.2 µM and 5 µg/mL

Q: With `O=C1C(C2c3ccccc3-c3ccccc32)CCN1Cc1ccccc1` (stereo unspecified) as the compound, how does the MIC [1] read?
A: > 74 µM and > 25 µg/mL

Q: With `CCCCCCCCC(=O)N1CCC(C2c3ccccc3-c3ccccc32)C1` (stereo unspecified) as the compound, how does the MIC [1] read?
A: 21.3 µM and 8 µg/mL

Q: With `CCCCCCCCCN1CCC(C2c3ccccc3-c3ccccc32)C1` (stereo unspecified) as the compound, how does the MIC [1] read?
A: 1 µg/mL and 2.8 µM

Q: For `O=C(Nc1ccc(F)c(F)c1F)NC12CC3CC(CC(C3)C1)C2`, which Activity [17] is on record?
A: inactive

Q: What about the Activity [18] of the same compound?
A: Active

Q: What about the Activity [19] of the same compound?
A: Active

Q: What about the Activity [20] of the same compound?
A: inactive

Q: And the Activity [21]?
A: Active

Q: What about the inhibition at 6.2 µM [22] of the same compound?
A: 60%

Q: With `O=C(c1ccccc1)N1CCC(C2c3ccccc3-c3ccccc32)C1=O` (stereo unspecified) as the compound, how does the MIC [1] read?
A: > 45 µM and > 16 µg/mL

Q: Which Activity ([1]; time 21.0 day) does the source give for `O=C1C(C2c3ccccc3-c3ccccc32)CCN1c1cc(Cl)cc(Cl)c1` (stereo unspecified) here?
A: inactive

Q: What about the inhibition [23] of the same compound?
A: inactive

Q: Which MIC [1] does the source give for `CCCCCCCCC(=O)N1CCC(C2c3ccccc3-c3ccccc32)C1=O` (stereo unspecified) here?
A: 4 µg/mL and 10.3 µM

Q: With `O=C1C(C2c3ccccc3-c3ccccc32)CCN1c1ccc(F)cc1` (stereo unspecified) as the compound, how does the MIC [1] read?
A: 14.6 µM and 5 µg/mL

Q: For `N#CC(C#N)=NNc1cccc(Cl)c1` [CARBONYL CYANIDE M-CHLOROPHENYLHYDRAZONE], which inhibition at 10 µM [24] is on record?
A: 66%

Q: And the Activity [25]?
A: Active

Q: What about the inhibition at 2 µM [26] of the same compound?
A: 0.2%

Q: And the inhibition at 5 µM [27]?
A: 9%

Q: What does the source list for `NNC(=O)c1ccncc1` [ISONIAZID]?
A: MIC [1]: 0.025 µg/mL (≈ 0.182 µM); Activity [28]: Active; Activity [29]: Active

Q: For `c1ccc(CN2CCC(C3c4ccccc4-c4ccccc43)C2)cc1` (stereo unspecified), which MIC [1] is on record?
A: 5 µg/mL and 15.4 µM

Q: What does the source list for `CCCCCCCCCN1CCC(C2c3ccccc3-c3ccccc32)C1=O` (stereo unspecified)?
A: MIC [1]: 5 µg/mL and 13.3 µM; Activity (MRC5): Non-Toxic

Q: For `O=C(c1ccc2[nH]ccc2c1)N1CCN(C2c3ccccc3-c3ccccc32)CC1`, which MIC [1] is on record?
A: > 16 µg/mL and > 40.7 µM

Q: Which MIC [1] does the source give for `Oc1cc(Cl)ccc1Oc1ccc(Cl)cc1Cl` [TRICLOSAN] here?
A: 34.5 µM and 10 µg/mL

Q: With `O=C1C(C2c3ccccc3-c3ccccc32)CCN1CCc1ccccc1` (stereo unspecified) as the compound, how does the MIC [1] read?
A: 1 µg/mL and 2.8 µM
